Like-named read-outs stand apart in the source and are kept apart here.
Tests used:
Purkinje fiber = experiment: Effect on APD (APD75, field-stimulated right ventricular free wall); type: cell-based, adult mongrel dog; conditions: 20 minutes incubation, 37° C., 1 Hz, control before drug = 100%; for activation at 1 µg/mL / activation at 3 µg/mL / activation at 10 µg/mL: Canis lupus familiaris, purkinje, 20 min, read-out: APD75 % (percent change in APD75); for activation at 10 µg/mL: dose 10 μg/ml
In short: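 Right ventricular free wall from pentobarbital-anaesthetized adult mongrel dog, held in Tyrode's solution at 37° C. with 1 Hz field stimulation. Purkinje fiber action potentials recorded by intracellular glass microelectrodes; APD75 measured after 20 minutes drug perfusion, expressed as percent change versus pre-drug control (100%).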

[1] = system: right ventricle (effective refractory period); experiment: Activity on ERP of the right ventricle; type: in vivo, adult mongrel dog; conditions: Canis lupus familiaris, ERP before drug = 100%, read-out: ERP % (ERP prolonging activity); for change in vivo at 3 mg/kg: 3 mg/kg i.v.
In short: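 Anaesthetized open-chest mongrel dogs, right ventricle paced at 400 msec interval (4 msec, twice diastolic threshold) after alcohol ablation of sinus pacemaker. ERP defined by loss of response to first stimulus of a 10-stimulus train; drug given intravenously or intraduodenally, ERP expressed as % of pre-dose.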

atrial fibrillation = experiment: Atrial fibrillation model; type: in vivo, mongrel dog; conditions: dose of 0.3 to 3 mg/kg or 1 to 10 mg/kg
From the text: Furthermore, the anaethetized dog was cut open at the chest. Bipolar electrodes were sutured to the right atrial surface, and stimulation electrodes were attached to the vagus nerves at both sides of the cervical region. Atrial fibrillation was induced by the method of Goldberger et al. A. L. Goldberger et al.: […] Further, the anaethetized dog was cut open at the chest. Left anterior descending coronary artery was ligated, and ninety minutes later, reperfused to prepare a myocardial infarction which was liable to develop tachycardia. At that time, a bipolar plunge electrode was placed in the interventricular septum near the ligated site. Several days after the operation, programmed electrical stimulation was applied to induce tachycardia. The effect of the drug to cause disappear of tachycardia was examined. In an anaethetized and open-chested mongrel dog, bipolar electrodes (silver and silver-silver chloride electrodes) were sutured respectively to the right atrium for stimulation and recording. The vagus nerves on both sides of the cervical region were isolated and cut, and stimulation electrodes were attached to the peripheral end. The atrial fibrillation was induced in accordance with the method of Goldberger et al. After cardiac arrest induced by stimulating the vagus nerves, electrical stimulation was applied to the right atria at a high frequency.

in vivo = conditions: mouse, in vivo
Description: (§1) By using male ddY-strain 5-week old mice (3 to 4 per group), the compounds of general formula (1) were each administered orally or intraperitoneally as a solution in saline or as a suspension in methyl cellulose, and 24 hours after the administration, the toxicity of the compounds was evaluated.

mice = experiment: in vivo; conditions: p.o., 24 hours after administration, male ddY mice; 1440 min
Description: as §1

dopamine 2 receptor = biological target: T1, dopamine 2 receptor (Rattus norvegicus, UniProt P61169); experiment: [3H]spiperone binding assay (affinity for dopamine 2 receptor); set-up: species or system Wistar-strain male rat; conditions: rat striatal membranes, 0.5 nM [3H] spiperone, 37° C., 10 minutes
T1 construct: membrane fractions prepared from the brain a Wistarstrain male rat; from tissue; host or cells: rat brain striatum (Wistar, male), membrane fraction
Description: (§2) Striatal membranes fractions were prepared from a rat brain, and the affinity of the compounds of this invention on dopamine 2 receptors was determined by using [^3 H] spiperone assay from membranes fractions as an index. Moreover, frontal cortex membranes were prepared from a rat brain, and the affinity of the test drugs on serotonine 2 receptor was determined by using [^3 H] ketenserin binding assay. It was shown that the compounds of general formula (1) of the invention have marked anti-dopamine activity and anti-serotonine activity.
[^3 H]spiperone binding assay
The affinity of the compounds of this invention to the dopamine 2 receptor was determined on the basis of the ability to substitute [^3 H] spiperone from stratal membrane fractions prepared from the brain a Wistarstrain male rat.
(§3) The rat was decapitated, and the brain was obtained. The striatum was homogenized in 40 volumes of 50 mM Tris-HCl buffer (pH 7.6), and then centrifuged. The pellets were again homogenized in 50 volumes of the same buffer, and used in a binding test. The binding test was conducted by the following procedure.
(§4) The stria (original tissue weight 20 mg/ml), 100 microliters of a test drug and 0.5 nM of [^3 H] spiperone were incubated at 37° C. for 10 minutes in 50 mM Tris-HCl buffer (pH 7.6). Then, the reaction mixture was suction-filtered through a glass fiber filter (Watmann GF/B) and washed with a buffer three times.
(§5) The filter was put in a scintillation cocktail (ACSII, Amersham Co.), and after mixing, left to stand overnight. The radioactivity held on the filter was measured by a liquid scintillation counter. The nonspecific binding was measured in the presence of 1 μM of (+) butaclamol. The concentration of the test drug which inhibited 50% of a specific binding was determined from the graph and defined as IC50. Ki was calculated from the following equation. [formula]

serotonine 2 receptor = biological target: T2, serotonine 2 receptor (Rattus norvegicus, UniProt P14842); experiment: [3H]ketanserin binding assay (affinity for serotonine 2 receptor); set-up: species or system Wistar male rat; conditions: rat frontal cortex, 1 nM [3H] ketanserin, 37° C., 10 minutes
T2 construct: frontal cortex fraction prepared from the brain of a Wistar male rat; from tissue; host or cells: rat brain frontal cortex (Wistar, male), membrane fraction
Description: as §2
[^3 H] ketanserin binding assay
The affinity of the compound of the invention was determined on the basis of the ability to substitute [^3 H] ketanserin from a frontal cortex fraction prepared from the brain of a Wistar male rat.
as §3, with “The frontal cortex” for “The striatum”, “in 100” for “in 50”
as §4, with “frontal cortex” for “stria”, “1” for “20”, “1” for “0.5”, “ketanserin” for “spiperone”
as §5, with “methysergide.” for “(+) butaclamol.”, “IC5.” for “IC50.”

[2] = system: Quipazine-induced head twitching of mice; experiment: Quipazine-induced head twitching (anti-5-HT activity); type: in vivo, ddY-strain male mice; conditions: for Percent inhibition of quipazine-induced head twitching / Quipazine-induced head twitching: 1 mg/kg i.p.; for Quipazine-induced head twitching: control 6.7 ± 0.8, **p < 0.05, ***p < 0.001
From the text: (§6) The effects of the compounds of general formula (1) on the apomorphine-induced climbing behavior of mice (i.e. anti-dopamine activity) and the effects of the test drugs of the invention on the quipazine-induced head twitching of mice (i.e. anti-serotonine activity) were also examined. It was made clear that the compounds of this invention represented by general formula (1) have marked anti-dopamine activity and anti-serotonine activity both in vivo and in vitro, and have potentiality as an anti-psychotic agent, an anti-depressant, an antianxiety agent, a sedative or as an anti-dementia agent.
(§7) By using 5 week old ddY-strain male mice (10 per group), the anti-dopamine (anti-DA hereinafter) and anti-serotonine (anti-5-HT hereinafter) activities were examined by the following procedures. All does of test drugs were adjusted to 1 mg/ml. They were each suspended in 0.5% carboxymethyl cellulose (CMC)/saline so that their volume administered was 0.1 ml/10 g. The suspension was administered intraperitoneally.
2. Effect of quipazine on the head twitch (anti-5-HT activity):
Quipazine (3 mg/kg) was administered intraperitoneally 30 minutes after the intraperitoneal administration of each test drug. After the lapse of 10 minutes, 20 minutes and 30 minutes from then, the number of head twitchings of each mouse which occurred for 2 minutes was counted.

[3] = system: Apomorphine-induced climbing of mice; experiment: Apomorphine-induced climbing (anti-DA activity); type: in vivo, ddY-strain male mice
From the text: as §6, §7
1. Effect of apomorphine on the climbing behavior (anti-DA activity):
Apomorphine (3 mg/kg) was subcutaneously administered 30 minutes after the intraperitoneal administration of each test drug, and 20 minutes later, the climbing time of each mouse was measured.

[4] = po, LD50 p.o., p.o., 24 hours after administration, male ddY mice

T1 sequence (P61169 whole entry): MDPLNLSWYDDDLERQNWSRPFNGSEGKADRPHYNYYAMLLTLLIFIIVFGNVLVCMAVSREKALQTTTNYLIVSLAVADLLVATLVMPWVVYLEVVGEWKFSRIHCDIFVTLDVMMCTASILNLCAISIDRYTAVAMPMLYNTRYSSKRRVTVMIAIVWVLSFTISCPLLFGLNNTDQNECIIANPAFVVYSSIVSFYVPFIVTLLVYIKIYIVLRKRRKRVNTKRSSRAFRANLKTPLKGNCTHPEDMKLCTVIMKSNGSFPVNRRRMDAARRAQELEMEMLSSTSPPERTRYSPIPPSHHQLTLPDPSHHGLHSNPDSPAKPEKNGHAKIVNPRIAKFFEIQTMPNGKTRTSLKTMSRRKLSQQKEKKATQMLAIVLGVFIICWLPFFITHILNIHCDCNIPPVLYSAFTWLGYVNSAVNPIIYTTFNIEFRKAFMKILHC
T2 sequence (P14842 whole entry): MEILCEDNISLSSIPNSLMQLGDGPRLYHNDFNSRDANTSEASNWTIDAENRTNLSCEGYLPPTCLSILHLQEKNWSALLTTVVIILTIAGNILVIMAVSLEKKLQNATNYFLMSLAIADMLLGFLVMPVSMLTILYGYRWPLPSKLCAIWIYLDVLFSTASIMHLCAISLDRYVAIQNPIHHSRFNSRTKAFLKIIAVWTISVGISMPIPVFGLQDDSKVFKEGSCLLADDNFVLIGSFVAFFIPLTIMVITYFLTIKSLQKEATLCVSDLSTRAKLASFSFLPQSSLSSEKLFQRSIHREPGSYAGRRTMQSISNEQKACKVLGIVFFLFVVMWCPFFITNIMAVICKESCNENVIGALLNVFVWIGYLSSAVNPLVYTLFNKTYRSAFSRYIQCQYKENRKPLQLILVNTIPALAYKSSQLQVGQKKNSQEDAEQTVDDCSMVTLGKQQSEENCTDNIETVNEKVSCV

Row | SMILES | activation at 1 µg/mL (Purkinje fiber; dose 1 μg/ml) [%] | activation at 3 µg/mL (Purkinje fiber; dose 3 μg/ml) [%] | activation at 10 µg/mL (Purkinje fiber) [%] | change in vivo at 0.1 mg/kg ([1]; iv, 0.1 mg/kg i.v.) [%] | change in vivo at 0.3 mg/kg ([1]; iv, 0.3 mg/kg i.v.) [%] | change in vivo at 1 mg/kg ([1]; iv, 1 mg/kg i.v.) [%] | disappearance of atrial fibrillation (atrial fibrillation) | LD50 at 24 h (in vivo; [4]) [mg/kg] | Ki (dopamine 2 receptor) [nM] | Ki (serotonine 2 receptor) [nM] | also measured
1 | CC1CCCN(CCCOc2ccc3c(c2)OCC3=O)C1 (centres unmarked) [Compound 1118] | 10 | 13 | 24 | 5 | 9 | 22 | could cause disappearance fibrillation | > 300 | – | – | change in vivo at 3 mg/kg ([1]; iv): 26%
2 | O=C1COc2cc(OCCCN3CCC(c4ccccc4)CC3)ccc21 [Compound 1139] | 33 | 55 | 65 | – | 5 | 11 | could cause disappearance fibrillation | – | – | – | LD50 p.o. (mice): > 1,000 mg/kg
3 | O=C1COc2cc(OCCCN3CCC(Cc4ccccc4)CC3)ccc21 [Compound 1146] | 18 | 25 | 34 | 4 | 16 | 20 | could cause disappearance fibrillation | > 300 | > 400 | 441 | –
4 | CC1CCCC(C)N1CCCOc1ccc2c(c1)OCC2=O (centres unmarked) [Compound 1126] | – | 19 | 27 | – | 8 | 12 | could cause disappearance fibrillation | > 300 | – | – | change in vivo at 3 mg/kg ([1]; iv): 15%
5 | CCCCCCCN(CC)CCCOc1ccc2c(c1)OCC2=O.Cl [Compound 102, 6-3-(N-ethyl-N-heptylamino)propyloxycoumaran-3-one hydrochloride] | – | – | – | 11.7 ± 3.2 | 21.3 ± 3.3 | 23.3 ± 2.9 | could cause disappearance fibrillation | ~300 | – | – | APD75 % (percent change in APD75) (Purkinje fiber; dose 1 μg/ml): 20%; APD75 % (percent change in APD75) (Purkinje fiber; dose 3 μg/ml): 30%; change in vivo at 0.1 mg/kg ([1]; 0.1 mg/kg i.d.): 0%; change in vivo at 0.3 mg/kg ([1]; 0.3 mg/kg i.d.): 13%; change in vivo at 1 mg/kg ([1]; 1 mg/kg i.d.): 27%; LD50 at 24 h (in vivo; ip, LD50 i.p., i.p., 24 hours after administration, male ddY mice): ~100 mg/kg
6 | O=C1COc2cc(OCCCN3CCN(c4ccccc4)CC3)ccc21 [Compound 1256] | – | – | – | – | – | – | – | – | 286 | 175 | Percent inhibition of quipazine-induced head twitching [2]: 43%; Quipazine-induced head twitching [2]: 3.8 ± 0.9 number/2 min.
7 | CCCCN(CCCC)CCCOc1ccc2c(c1)OCC2=O [Compound 144] | 13 | 26 | 33 | 10 ± 1.7 | 15.5 ± 4.9 | 21.1 ± 6.2 | could cause disappearance fibrillation | – | – | – | –
8 | O=C1COc2cc(OCCCN3CCC(C(=O)c4ccc(F)cc4)CC3)ccc21 [Compound 1236] | – | – | – | – | – | – | – | – | 122 | 9.1 | LD50 at 24 h (in vivo; po): < 300 mg/kg; Percent inhibition of apomorphine-induced climbing ([3]; 1 mg/kg i.p.): 56%; Apomorphine-induced climbing (mean ± S.E.) ([3]; 1 mg/kg i.p., control 72.9 ± 8.5, **p < 0.01): 32.0 ± 8.6 sec/2 min.; effect on apomorphine-induced climbing behavior / anti-dopamine activity (in words) ([3]; in vivo, mice): significantly inhibited the apomorphine-induced climbing behavior; Percent inhibition of quipazine-induced head twitching [2]: 99%; Quipazine-induced head twitching [2]: 0.1 ± 0.1 number/2 min.; effect on quipazine-induced head twitching / anti-serotonine activity (in words) ([2]; in vivo, mice): significantly inhibited the apomorphine-induced climbing behavior and quipazine-induced head twitching
9 | O=C1COc2cc(OCCCN3CCC(c4ccccc4)CC3)ccc21 [Compound 1140] | – | – | – | – | – | – | – | – | – | – | LD50 p.o. (mice): > 300 mg/kg

— patent publication US5192799A, “Coumaran group containing amine compounds and their acid addition salts and quaternary ammonium salts and the use thereof as anti arrhythmic agents and as psychotropic agents” (Mitsui Petrochemical Industries, Ltd., priority 1987, dated 1993)
